According to paper PMC11079024, “Identification of a family of species-selective complex I inhibitors as potential anthelmintics” (Nature Communications, 2024):
Several values for one entry are separate records, joined by “and”; a condition that tells them apart may be missing. Equal values may be shown once. Read-outs that look alike come from different tables or passages of the source.

Biological target: C. elegans (N2) complex I (NADH:ubiquinone oxidoreductase) (Caenorhabditis elegans, UniProt P24887+Q93873+Q94360)
Test: biochemical
Format: biochemical
Method in brief: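 Mitochondria, 0.2 mg/mL protein, freeze-thawed three times, assayed in 25 mM KPi pH 7.5 with BSA, 80 μM NADH, 60 μM decylubiquinone, 160 μM DCIP, antimycin A and KCN. Rate from initial linear slope of A600 over 15 min. % of solvent control.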

[1] = C. elegans, Mean of replicates, read-out: Complex I activity, dose-response data
[2] = C. elegans, individual replicates (Rep), read-out: Complex I activity, dose-response data

C. elegans (N2) complex I (NADH:ubiquinone oxidoreductase), sequence (Q94360 17-199): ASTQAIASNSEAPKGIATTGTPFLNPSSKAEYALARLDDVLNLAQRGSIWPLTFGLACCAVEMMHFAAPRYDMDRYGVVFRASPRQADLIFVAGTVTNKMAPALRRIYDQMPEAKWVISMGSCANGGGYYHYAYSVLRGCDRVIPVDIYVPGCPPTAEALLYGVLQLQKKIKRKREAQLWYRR
C. elegans (N2) complex I (NADH:ubiquinone oxidoreductase), sequence (P24887 whole entry): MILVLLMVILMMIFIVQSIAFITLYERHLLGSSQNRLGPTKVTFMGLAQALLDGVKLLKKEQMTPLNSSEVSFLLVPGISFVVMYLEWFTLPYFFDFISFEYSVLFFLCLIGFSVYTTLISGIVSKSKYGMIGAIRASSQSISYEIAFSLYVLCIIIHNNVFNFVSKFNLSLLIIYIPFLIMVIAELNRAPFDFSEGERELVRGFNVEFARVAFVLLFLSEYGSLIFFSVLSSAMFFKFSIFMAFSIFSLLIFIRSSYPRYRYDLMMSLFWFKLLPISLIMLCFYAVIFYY
C. elegans (N2) complex I (NADH:ubiquinone oxidoreductase), sequence (Q93873 31-482): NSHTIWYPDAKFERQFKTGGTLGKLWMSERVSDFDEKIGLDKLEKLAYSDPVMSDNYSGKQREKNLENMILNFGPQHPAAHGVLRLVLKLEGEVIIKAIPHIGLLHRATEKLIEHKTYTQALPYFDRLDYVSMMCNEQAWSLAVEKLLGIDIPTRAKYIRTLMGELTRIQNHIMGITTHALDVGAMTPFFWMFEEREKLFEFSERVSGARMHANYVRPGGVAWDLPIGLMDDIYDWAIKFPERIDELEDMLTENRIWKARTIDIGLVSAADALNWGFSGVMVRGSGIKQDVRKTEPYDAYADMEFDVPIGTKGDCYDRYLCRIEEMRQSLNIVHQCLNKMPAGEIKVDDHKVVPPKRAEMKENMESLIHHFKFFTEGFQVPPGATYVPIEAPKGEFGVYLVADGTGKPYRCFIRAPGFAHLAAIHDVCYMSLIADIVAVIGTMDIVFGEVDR

`COc1cc2c(cc1OC)C(C(C)c1ccc(CC(C)C)cc1)=NCC2` (stereo not drawn) [NPD10504] showed a remaining activity at 3 µM (3 µM, wild-type C. elegans mitochondria, single replicate, read-out: percent (%) in vitro complex I activity relative to solvent control) of 61.4%, a remaining activity at 15 µM (wild-type C. elegans mitochondria, mean of replicates, read-out: percent (%) in vitro complex I activity relative to solvent control) of 13.5% and a remaining activity at 15 µM (wild-type C. elegans mitochondria, single replicate, read-out: percent (%) in vitro complex I activity relative to solvent control) of 12.3%. For the same molecule, the remaining activity at 37.5 µM (37.5 µM, wild-type C. elegans mitochondria, mean of replicates, read-out: percent (%) in vitro complex I activity relative to solvent control) was 12.4%, the remaining activity at 75 µM (75 µM, wild-type C. elegans mitochondria, mean of replicates, read-out: percent (%) in vitro complex I activity relative to solvent control) was 12.3% and the activity at 100 µM (100 µM compound, relative to solvent control, mean (SEM), read-out: % Activity Complex I) was 4.22%. The “Percent in vitro activity, Complex I (single replicate Rep1-Rep4)” value (100 μM of NPD compound, C. elegans mitochondria, individual biological replicates, 100 µM) was 0.000% and 7.255% and 9.637%, the activity at 100 µM (100 μM of NPD compound, C. elegans mitochondria, mean of four biological replicates, read-out: Percent in vitro activity, Complex I (Mean)) was 4.22% and the activity at 0.0001 µM [1] was 100%. For the same molecule, the activity at 0.0001 µM [2] was 100%, the activity at 0.0005 µM (C. elegans, dose 0.0005 µM, Mean of replicates, read-out: Complex I activity, dose-response data) was 95.6% and the “Complex I activity, dose-response data” value (C. elegans, dose 0.0005 µM, individual replicates (Rep)) was 99.245 and 96.022 and 93.047. For the same molecule, the activity at 0.0005 µM (C. elegans, dose 0.0005 µM, individual replicates (Rep), read-out: Complex I activity, dose-response data) was 94%, the activity at 0.001 µM (C. elegans, dose 0.001 µM, Mean of replicates, read-out: Complex I activity, dose-response data) was 95.6% and the “Complex I activity, dose-response data” value (C. elegans, dose 0.001 µM, individual replicates (Rep)) was 101.885 and 91.805 and 98.125. For the same molecule, the activity at 0.001 µM (C. elegans, dose 0.001 µM, individual replicates (Rep), read-out: Complex I activity, dose-response data) was 90.6%, the activity at 0.0025 µM (C. elegans, dose 0.0025 µM, Mean of replicates, read-out: Complex I activity, dose-response data) was 95.4% and the “Complex I activity, dose-response data” value (C. elegans, dose 0.0025 µM, individual replicates (Rep)) was 105.286 and 89.091 and 95.022. For the same molecule, the activity at 0.0025 µM (C. elegans, dose 0.0025 µM, individual replicates (Rep), read-out: Complex I activity, dose-response data) was 92.2%, the activity at 0.005 µM (C. elegans, dose 0.005 µM, Mean of replicates, read-out: Complex I activity, dose-response data) was 93.5% and the “Complex I activity, dose-response data” value (C. elegans, dose 0.005 µM, individual replicates (Rep)) was 100.896 and 97.608 and 92.236. The activity at 0.005 µM (C. elegans, dose 0.005 µM, individual replicates (Rep), read-out: Complex I activity, dose-response data) was 83.3%, the activity at 0.013 µM (C. elegans, dose 0.013 µM, Mean of replicates, read-out: Complex I activity, dose-response data) was 97.4% and the “Complex I activity, dose-response data” value (C. elegans, dose 0.013 µM, individual replicates (Rep)) was 86.744 and 107.737 and 98.643 and 96.409. The activity at 0.025 µM (C. elegans, dose 0.025 µM, Mean of replicates, read-out: Complex I activity, dose-response data) was 99.6%, the “Complex I activity, dose-response data” value (C. elegans, dose 0.025 µM, individual replicates (Rep)) was 81.492 and 104.774 and 100.771 and 111.289 and the activity at 0.063 µM (C. elegans, dose 0.063 µM, Mean of replicates, read-out: Complex I activity, dose-response data) was 97%. The “Complex I activity, dose-response data” value (C. elegans, dose 0.063 µM, individual replicates (Rep)) was 104.194 and 94.273 and 98.067, the activity at 0.063 µM (C. elegans, dose 0.063 µM, individual replicates (Rep), read-out: Complex I activity, dose-response data) was 91.6% and the activity at 0.125 µM (C. elegans, dose 0.125 µM, Mean of replicates, read-out: Complex I activity, dose-response data) was 92.7%. For the same molecule, the “Complex I activity, dose-response data” value (C. elegans, dose 0.125 µM, individual replicates (Rep)) was 100.304 and 94.360 and 87.363, the activity at 0.125 µM (C. elegans, dose 0.125 µM, individual replicates (Rep), read-out: Complex I activity, dose-response data) was 88.8% and the activity at 0.313 µM (C. elegans, dose 0.313 µM, Mean of replicates, read-out: Complex I activity, dose-response data) was 91.5%. For the same molecule, the “Complex I activity, dose-response data” value (C. elegans, dose 0.313 µM, individual replicates (Rep)) was 102.145 and 93.069 and 82.299, the activity at 0.313 µM (C. elegans, dose 0.313 µM, individual replicates (Rep), read-out: Complex I activity, dose-response data) was 88.6% and the activity at 0.625 µM [1] was 100%. For the same molecule, the activity at 0.625 µM [2] was 100%, the activity at 1.5 µM (C. elegans, dose 1.5 µM, Mean of replicates, read-out: Complex I activity, dose-response data) was 78.6% and the “Complex I activity, dose-response data” value (C. elegans, dose 1.5 µM, individual replicates (Rep)) was 84.112 and 75.755 and 78.095. The activity at 1.5 µM (C. elegans, dose 1.5 µM, individual replicates (Rep), read-out: Complex I activity, dose-response data) was 76.6%, the activity at 3 µM (C. elegans, dose 3 µM, Mean of replicates, read-out: Complex I activity, dose-response data) was 58.9% and the “Complex I activity, dose-response data” value (C. elegans, dose 3 µM, individual replicates (Rep)) was 63.002 and 56.869 and 54.489. For the same molecule, the activity at 3 µM (C. elegans, dose 3 µM, individual replicates (Rep), read-out: Complex I activity, dose-response data) was 61.4%, the activity at 15 µM (C. elegans, dose 15 µM, Mean of replicates, read-out: Complex I activity, dose-response data) was 13.5% and the “Complex I activity, dose-response data” value (C. elegans, dose 15 µM, individual replicates (Rep)) was 13.403 and 18.209 and 10.130. For the same molecule, the activity at 15 µM (C. elegans, dose 15 µM, individual replicates (Rep), read-out: Complex I activity, dose-response data) was 12.3%, the activity at 37.5 µM (C. elegans, dose 37.5 µM, Mean of replicates, read-out: Complex I activity, dose-response data) was 12.4% and the “Complex I activity, dose-response data” value (C. elegans, dose 37.5 µM, individual replicates (Rep)) was 3.265 and 5.642 and 23.594 and 17.069. The activity at 75 µM (C. elegans, dose 75 µM, Mean of replicates, read-out: Complex I activity, dose-response data) was 12.3%, the “Complex I activity, dose-response data” value (C. elegans, dose 75 µM, individual replicates (Rep)) was 2.370 and 3.939 and 26.690 and 16.321 and the IC50 (wild-type (N2) mitochondria, read-out: C. elegans Complex I IC50) was 3.29 µM and 3.3 µM.
